How the values were obtained:
[1] = tested on: FLAG-tagged PRMT1 and His-tagged PRMT1; assay: Pulldown assay of PRMT1 homodimerization; type: binding; details: 200 (and 500) μM compound vs DMSO
Source text: The poses were obtained by docking with HYBRID onto previously obtained docking poses of TR-033 (TR-07 in cyan) and TR-036 (TR-07 in red). The two monomers are colored in dark and light gray. The dimerization arm of the right monomer is colored in pale pink. The αY helix of the other monomer is colored pale green. The SAH location (derived from a superposition with PDB ID 6NT2) is indicated in pale yellow, but the molecule was not present during the docking calculations. The two images on the right show a close-up view of each docking pose separately. […] The dashed line separates the first and the second monomer. […] The N-terminal αY helix, the SAH location (derived from a superposition with PDB ID 3Q7E), the arginine acceptor site (derived from a superposition with PDB ID 1OR8), the Double E loop, and the dimerization arm are indicated. […] Subsequently, FLAG-beads were washed and bead-bound proteins were analyzed together with an His-tagged PRMT1 input (20 ng) by Western blot using antibodies against the His- and FLAG-tags. As negative control, anti-FLAG resin saturated with FLAG peptide was incubated with His-tagged PRMT1. The His-PRMT1 signals were densitometrically quantified, corrected to the FLAG-PRMT1 signals, and expressed relative to the solvent control, as specified by the numbers below the immunostainings. Molecular weights (kDa) of the protein marker are indicated.
To evaluate the effect of small-molecule PRMT1 modulators on the dimerization of His-tagged and FLAG-tagged PRMT1, pulldown assays were conducted. For the binding reactions, 1 μg of bead-bound FLAG-tagged PRMT1 was preincubated with or without compounds at a total volume of 200 μL IPH buffer (50 mM Tris/HCl pH 8.0, 5 mM EDTA, 0.5% (v/v) NP-40, 150 mM NaCl) containing protease inhibitors (leupeptin, aprotinin, PMSF; Sigma-Aldrich) at 4 °C and under gentle agitation for 30 min. Subsequently, 0.02 μg His-tagged PRMT1 was added per reaction and incubated at 4 °C and under gentle agitation for 15 min. Finally, the beads were washed 3 times in IPH buffer containing 400 mM NaCl and analyzed by SDS-PAGE and immunoblotting.

[2] = target: T1, FLAG-tagged PRMT1 (Rattus norvegicus, UniProt Q63009); assay: Liquid in vitro methyltransferase assay, scintillation counting (GST-GAR); type: biochemical; details: 200 μM compound, except TR-033 100 μM; vs DMSO control
T1 construct: Full-length FLAG-tagged PRMT protein; made in house; host or cells: Sf9 insect cells (baculovirus)
Description: (§1) As negative control (Ctrl (−)), PRMT1 enzymes and [^14C-methyl]-SAM were incubated without substrates. Subsequently, samples were separated by SDS-PAGE, blotted, and analyzed by autoradiography. Substrates (H2A, H4 or GST-GAR) and molecular weights (kDa) of the protein marker are indicated. Black lines designate composite images, assembled from the same blots and exposure times. The methylation signals of the substrates were densitometrically quantified, and expressed relative to the DMSO-treated control, as indicated by the numbers below the autoradiographs. Representative results are depicted, with quantification graphs (below the autoradiographs in A and B) summarizing biological replicates. […] Subsequently, GST-GAR was immobilized on glutathione-beads and PRMT1 activity was measured by quantifying the incorporation of ^14C-methyl groups (in cpm) using liquid scintillation counting. […] Cell viability was quantified using the CellTiter-Glo assay. Viability of compound-treated cells is shown in % relative to the viability of solvent-treated cells, which was set to 100% (mean ± SD, n = 3), and then plotted against the logarithm of the compound concentrations. Concentration-viability curves were fitted by nonlinear regression, with the half-maximal inhibitory concentration (IC50) of the compounds for PANC-1 cell viability and the coefficient of determination (R^2) indicated. […] Subsequently, whole-cell extracts were prepared and analyzed by Western blot using antibodies against ADMA, ACTIN (ACT), and VINCULIN (VINC), of which the latter two stainings served as loading controls. Molecular weights (kDa) of the protein marker are indicated. All the ADMA signals per lane were densitometrically quantified, normalized to the signal of the respective loading control and expressed relative to the DMSO-treated control, as indicated by the numbers below the immunostainings.
For the liquid methyltransferase assays, the reaction mixtures, containing 1–2 μg eluted FLAG-tagged PRMT1 and as the substrate 1–2 μg eluted GST-GAR protein at a total volume of 20 μL in PBS, were preincubated in the absence (DMSO) or presence of compounds at room temperature and under agitation (800 rpm) for 30 min. […] After washing, 1 mL scintillation liquid (Rotiszint ecoplus, Roth) was added to the bead-bound GST-GAR and incorporated ^14C-methyl groups were quantified using a scintillation counter (LS6500, Beckman Coulter). Background signal was determined using 1 mL of scintillation fluid alone and was subtracted from the measured counts of the enzymatic reactions. Compound-treated PRMT1 activity was expressed as background-corrected counts (in cpm) normalized to the DMSO control.

[3] = tested on: ADMA in PANC-1 cells; assay: Western blot of global ADMA levels in PANC-1 cells; type: cell-based, human; details: PANC-1, 72 h, 10 and 20 μM (TR-033 2.5 and 5 μM), vs DMSO
Description: as §1, with “assay.” for “assay. Viability of compound-treated cells is shown in % relative to the viability of solvent-treated cells, which was set to 100% (mean ± SD, n = 3), and then plotted against the logarithm of the compound concentrations. Concentration-viability curves were fitted by nonlinear regression, with the half-maximal inhibitory concentration (IC50) of the compounds for PANC-1 cell viability and the coefficient of determination (R^2) indicated.”, “Molecular weights (kDa) of the protein marker are indicated.” left out, “immunostainings. […]” for “immunostainings.”

T1 sequence (Q63009 whole entry): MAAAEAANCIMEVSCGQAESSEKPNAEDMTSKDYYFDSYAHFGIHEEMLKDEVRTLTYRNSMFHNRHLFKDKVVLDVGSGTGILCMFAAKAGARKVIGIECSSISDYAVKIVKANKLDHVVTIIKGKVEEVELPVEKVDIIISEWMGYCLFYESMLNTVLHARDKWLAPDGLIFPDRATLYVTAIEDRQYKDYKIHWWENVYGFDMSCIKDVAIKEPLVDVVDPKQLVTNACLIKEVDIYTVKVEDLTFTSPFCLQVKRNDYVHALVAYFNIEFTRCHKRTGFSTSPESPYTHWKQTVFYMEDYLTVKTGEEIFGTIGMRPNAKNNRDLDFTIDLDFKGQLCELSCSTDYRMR

| Molecule | interaction of FLAG-tagged PRMT1 and His-tagged PRMT1 (homodimerization) [1] | PRMT1 methylation activity toward GST-GAR, liquid scintillation counting [2] | global arginine methylation (ADMA) in cells [3] |
| --- | --- | --- | --- |
| (Z)-2-(2-{[(1,3-Dioxo-2,3-dihydroisoquinolin-4(1H)-ylidene)methyl]amino}phenyl)-N,N-dimethylethan-1-aminium chloride [ICTR-059] | elevated interaction of the two PRMT1 species | increased |  |
| CN(C)Cc1cccc(-c2ccc3[nH]c(=O)c4ccccc4c3c2)c1 [TR-033, 2-{3-[(Dimethylamino)methyl]phenyl}phenanthridin-6(5H)-One] | elevated interaction of the two PRMT1 species | increased | did not produce consistent effects |
| CCN(CC)Cc1cccc(N/C=C2\C(=O)NC(=O)c3ccccc32)c1.Cl [TR-036, (Z )-N-(3-{[(1,3-Dioxo-2,3-dihydroisoquinoline-4(1 H )-ylidene)methyl]amino}benzyl)-N -ethylethanaminium chloride] | elevated interaction of the two PRMT1 species | increased |  |
| CN(C)Cc1cccc(CN/C=C2\C(=O)NC(=O)c3ccccc32)c1.Cl [TR-07, (Z)-1-[3-({[(1,3-Dioxo-2,3-dihydroisoquinolin-4(1H)-lidene)methyl]amino}methyl)phenyl]-N,N-dimethylmethanaminium chloride] | elevated interaction of the two PRMT1 species | increased | concentration-dependent increase in global arginine methylation |
